This note sets out measurements from patent US9980943B2, “Methods of treating muscular dystrophy” (BOARD OF REGENTS OF THE NEVADA SYSTEM OF HIGHER EDUCATION, …, priority 2013, dated 2018).

Assay type in all cases: cell-based, mouse
Experiment [1] relates to α7 integrin (LacZ reporter in α7βgal+/− myoblasts). Briefly: Myoblast α7+/LacZ integrin FDG assay (Burkin assay in myoblasts, 96-well). To be noted: α7+/LacZ myoblasts, 96-well.
Experiment [2] deals with α7 integrin (LacZ reporter in α7+/LacZ myotubes). Briefly: Myotube α7 integrin FDG assay (Burkin assay in myotubes, 96-well). To be noted: myotubes.
Experiment [3] concerns β-galactosidase in CMV-LacZ C2C12 myotubes. In words: CMV-LacZ secondary screen in C2C12 myotubes (β-Gal stabilizing assay). To be noted: C2C12 CMV-LacZ myotubes, fold relative to DMSO. The essentials:
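β-Gal level was the read-out, measured in a clonal C2C12 line expressing LacZ from a CMV promoter. Dose-response curves used six concentrations, 0.5 μM up to 40 μM, with duplicate points.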

`CCCOc1nc(SCCC)nc2c1cnn2-c1ccccc1` [MLS000737953-01]: the “Burkin Assay in Myoblasts, signal relative to DMSO” value in experiment [1] (0.5 uM) was determined as 0.9; in experiment [1] (1 uM) it was 0.9673; in experiment [1] (5 uM) it was 1.003; in experiment [1] (10 uM), 1.08; in experiment [1] (20 uM), 1.149; in experiment [1] (40 uM) it was 1.233. Further, the “Burkin Assay in Myotubes, α7 integrin LacZ reporter signal relative to DMSO” value in experiment [2] (0.5 uM) worked out at 0.9665; in experiment [2] (1 uM), 1.135; in experiment [2] (5 uM), 1.241; in experiment [2] (10 uM), 1.226; in experiment [2] (20 uM), 1.007; in experiment [2] (40 uM) it was 0.5339. The “CMV-LACZ in Myotubes, signal relative to DMSO” value was determined as 0.8274 in experiment [3] (5 uM), 1.224 in experiment [3] (10 uM), 0.9478 in experiment [3] (20 uM) and 0.9096 in experiment [3] (40 uM).

For the compound `Cc1cc2ccccc2n2c(SCC(=O)NCc3cccs3)nnc12` [MLS000526364-01], the “Burkin Assay in Myoblasts, signal relative to DMSO” value is 0.9747 in experiment [1] (0.5 uM); 0.9502 in experiment [1] (1 uM); 1.045 in experiment [1] (5 uM); 1.085 in experiment [1] (10 uM); 1.114 in experiment [1] (20 uM); 1.029 in experiment [1] (40 uM). The “Burkin Assay in Myotubes, α7 integrin LacZ reporter signal relative to DMSO” value in experiment [2] (0.5 uM) worked out at 0.9648; in experiment [2] (1 uM), 0.8953; in experiment [2] (5 uM), 1.033; in experiment [2] (10 uM), 0.8908; in experiment [2] (20 uM), 1.358; in experiment [2] (40 uM) it was 0.9162. Further, the “CMV-LACZ in Myotubes, signal relative to DMSO” value in experiment [3] (5 uM) stood at 0.9507; in experiment [3] (10 uM), 0.953; in experiment [3] (20 uM) it was 1.1735; in experiment [3] (40 uM), 1.1865.

`Cc1cc(C)nc(NC(=O)c2ccc(Cl)cc2Cl)n1` [MLS000706349-01]: the “Burkin Assay in Myoblasts, signal relative to DMSO” value in experiment [1] (0.5 uM) is 1.086; in experiment [1] (1 uM), 0.9797; in experiment [1] (5 uM) it was 0.8593; in experiment [1] (10 uM), 0.8434; in experiment [1] (20 uM) it was 0.8584; in experiment [1] (40 uM), 0.6533. The “Burkin Assay in Myotubes, α7 integrin LacZ reporter signal relative to DMSO” value in experiment [2] (0.5 uM) amounted to 1.193; in experiment [2] (1 uM), 1.008; in experiment [2] (5 uM), 0.9738; in experiment [2] (10 uM), 0.9294; in experiment [2] (20 uM) it was 1.073; in experiment [2] (40 uM), 0.9239. Moreover, the “CMV-LACZ in Myotubes, signal relative to DMSO” value in experiment [3] (5 uM) amounted to 0.9465; in experiment [3] (10 uM) it was 0.9553; in experiment [3] (20 uM), 1.0245; in experiment [3] (40 uM) it was 1.1355.

Regarding `COC(=O)c1ccc(C2C(C(=O)c3cc4ccccc4o3)=C(O)C(=O)N2CCN2CCOCC2)cc1` (stereo not drawn) [MLS001146463-01], the “Burkin Assay in Myoblasts, value relative to DMSO” value in experiment [1] (0.5 uM) is 1.026; in experiment [1] (1 uM) it was 0.9781; in experiment [1] (5 uM), 0.9027; in experiment [1] (10 uM), 0.9293; in experiment [1] (20 uM), 0.7318; in experiment [1] (40 uM) it was 0.8061. For the same compound, the “Burkin Assay in Myotubes (signal relative to DMSO)” value in experiment [2] (0.5 uM) was determined as 0.8827; in experiment [2] (1 uM) it was 0.8032; in experiment [2] (5 uM), 1.216; in experiment [2] (10 uM), 0.7514; in experiment [2] (20 uM), 0.8465; in experiment [2] (40 uM), 0.8424. In addition, the “CMV-LACZ in Myotubes, signal relative to DMSO” value in experiment [3] (5 uM) is 1.074; in experiment [3] (10 uM), 0.9392; in experiment [3] (20 uM), 1.06; in experiment [3] (40 uM), 1.141.

Consider `O=c1oc2c(-c3cccc(F)c3)cc(O)cc2s1` [MLS000680049-01], for which the “Burkin Assay in Myoblasts, signal relative to DMSO” value stood at 0.9998 in experiment [1] (0.5 uM); 1.103 in experiment [1] (1 uM); 0.9693 in experiment [1] (5 uM); 0.9727 in experiment [1] (10 uM); 0.7493 in experiment [1] (20 uM); 0.6354 in experiment [1] (40 uM). In addition, the “Burkin Assay in Myotubes, α7 integrin LacZ reporter signal relative to DMSO” value in experiment [2] (0.5 uM) is recorded as 0.8875; in experiment [2] (1 uM), 1.056; in experiment [2] (5 uM) it was 1.047; in experiment [2] (10 uM) it was 1.22; in experiment [2] (20 uM), 0.8731; in experiment [2] (40 uM), 0.4379. In addition, the “CMV-LACZ in Myotubes, signal relative to DMSO” value in experiment [3] (5 uM) is reported as 1.127; in experiment [3] (10 uM) it was 1.106; in experiment [3] (20 uM), 1.4405; in experiment [3] (40 uM), 0.4315.

`COc1ccc(-c2cc(COc3ccccc3)on2)cc1` [MLS000695955-01]: the fold induction at 0.5 µM amounted to 0.902 in experiment [1] (Mus musculus, Myoblast, 48 h, 0.5 uM, read-out: Burkin Assay in Myoblasts, signal relative to DMSO) and 0.945 in experiment [2] (Mus musculus, Myotube, 0.5 uM, read-out: Burkin Assay in Myotubes, α7 integrin LacZ reporter signal relative to DMSO). In addition, the fold induction at 1 µM amounted to 0.871 in experiment [1] (Mus musculus, Myoblast, 48 h, 1 uM, read-out: Burkin Assay in Myoblasts, signal relative to DMSO) and 1.03 in experiment [2] (Mus musculus, Myotube, 1 uM, read-out: Burkin Assay in Myotubes, α7 integrin LacZ reporter signal relative to DMSO). Further, the fold induction at 5 µM stood at 1.08 in experiment [1] (Mus musculus, Myoblast, 48 h, 5 uM, read-out: Burkin Assay in Myoblasts, signal relative to DMSO); 1.15 in experiment [2] (Mus musculus, Myotube, 5 uM, read-out: Burkin Assay in Myotubes, α7 integrin LacZ reporter signal relative to DMSO); 0.789 in experiment [3] (Mus musculus, C2C12, read-out: CMV-LACZ in Myotubes, signal relative to DMSO, 5 uM). In addition, the fold induction at 10 µM in experiment [1] (Mus musculus, Myoblast, 48 h, 10 uM, read-out: Burkin Assay in Myoblasts, signal relative to DMSO) worked out at 1.06; in experiment [2] (Mus musculus, Myotube, 10 uM, read-out: Burkin Assay in Myotubes, α7 integrin LacZ reporter signal relative to DMSO) it was 1.32; in experiment [3] (Mus musculus, C2C12, read-out: CMV-LACZ in Myotubes, signal relative to DMSO, 10 uM), 0.896. The fold induction at 20 µM came to 0.961 in experiment [1] (Mus musculus, Myoblast, 48 h, 20 uM, read-out: Burkin Assay in Myoblasts, signal relative to DMSO); 1.23 in experiment [2] (Mus musculus, Myotube, 20 uM, read-out: Burkin Assay in Myotubes, α7 integrin LacZ reporter signal relative to DMSO); 0.992 in experiment [3] (Mus musculus, C2C12, read-out: CMV-LACZ in Myotubes, signal relative to DMSO, 20 uM). Further, the fold induction at 40 µM in experiment [1] (Mus musculus, Myoblast, 48 h, 40 uM, read-out: Burkin Assay in Myoblasts, signal relative to DMSO) worked out at 1.03; in experiment [2] (Mus musculus, Myotube, 40 uM, read-out: Burkin Assay in Myotubes, α7 integrin LacZ reporter signal relative to DMSO), 1.39; in experiment [3] (Mus musculus, C2C12, read-out: CMV-LACZ in Myotubes, signal relative to DMSO, 40 uM), 0.93.
